Assay results taken from patent EP0752465A1, “Betaine esters for delivery of alcohols” (THE PROCTER & GAMBLE COMPANY, priority 1995, dated 1997).
Read-outs that look alike come from different tables or passages of the source. One block for each compound: values may come before it.

Assay: Hydrolysis rate of betaine ester, pH-stat titrator at constant pH and temperature
Format: physicochemical
Conditions: for profile of hydrolysis: dependence on pH
Method: Test realised under pH-stat configuartion, at controlled temperature (40°C). Concentration in betaine ester used 1.5.10^-2 mol/l
[formula] Test conditions: C12 BEG added to a solution (pH 10.5) of sodium stearate in distilled water. pH and temperature maintained constant all along the test. Percentage of C12 BEG hydrolysed assessed using an automatic pH stat titrator. Concentrations used: C12 BEG 1.25 10^-2 mol/l Sodium stearate: 1 equivalent 1.25 10^-2 mol/l 2 equivalents 2.5 10^-2 mol/l
[formula] • Hydrolysis rate determined with a Radiometer pH stat. • Temperature (40°C) and pH (10.5) maintained constant. Concentration in C12 BEG or new ion pair C12 BEG/DS: 10^-3 mol/l. • Mixture anionic/nonionic: sodium dodecylsulfate (0.43 g/l), sodium stearate (0.013 g/l), alkylethoxylate (Dobanol 45 7 from Shell, 0.38 g/l), N-cocoyl-N-methylglucamine (0.16 g/l). • Kinetics of hydrolysis of C12 BEG/DS, with or without surfactants all follow a first order in [C12BEG/DS].

[1] = 40°C, pH 10.5, with 1 equivalent of sodium dodecylsulfate
[2] = 40°C, pH 10.5, with 3 equivalents of sodium dodecylsulfate
[3] = 40°C, pH 10.5, with 5 equivalents of sodium dodecylsulfate
[4] = 40°C, pH 10.5, with 10 equivalents of sodium dodecylsulfate
[5] = 40°C, pH 8.5, 1.25 10^-2 mol/l, alone
[6] = 40°C, pH 8.5, with 1 equivalent sodium stearate
[7] = 40°C, pH 8.5, with 2 equivalent sodium stearate
[8] = 40°C, pH 10.5, 1.25 10^-2 mol/l, with 2 equivalents of sodium dodecylsulfate
[9] = 40°C, pH 10.5, 1.25 10^-2 mol/l, with 4 equivalents of sodium dodecylsulfate
[10] = 40°C, pH 10.5, 1.25 10^-2 mol/l, with 9 equivalents of sodium dodecylsulfate
[11] = 40°C, pH 10.5, 10^-3 mol/l, with mixture anionic/nonionic
[12] = 40°C, pH 10.5, 10^-3 mol/l, with sodium dodecylsulfate only
[13] = 40°C, pH 10.5, ion pair 1.25 10^-2 mol/l alone
[14] = 40°C, pH 10.5, ion pair 10^-3 mol/l alone

k (40°C, pH 10.5, alone): 3950 mol^- ^1.l.min^-1
kobs at pH 10.5 (40°C, pH 10.5, alone): 1.25 min^-1
k [1]: 202 mol^- ^1.l.min^-1
kobs at pH 10.5 [1]: 0.064 min^-1
k [2]: 35 mol^- ^1.l.min^-1
kobs at pH 10.5 [2]: 0.0111 min^-1
k [3]: 23.5 mol^- ^1.l.min^-1
kobs at pH 10.5 [3]: 0.0074 min^-1
k [4]: 21 mol^- ^1.l.min^-1
kobs at pH 10.5 [4]: 0.0067 min^-1
half-life (buffer, pH 10.5, 40°C, pH 10.5, alone, read-out: t1/2 at pH 10.5): ~0.5 min
profile of hydrolysis: very dependent on pH
Hydrolysis profile (pH-stat, 40°C, betaine ester 1.5.10^-2 mol/l): very pH dependent
half-life (solution with 1 equivalent sodium dodecylsulfate, pH 10.5, 40°C, pH 10.5, with 1 equivalent of sodium dodecylsulfate, read-out: t1/2 at pH 10.5): 10.8 min
half-life (solution with 3 equivalents sodium dodecylsulfate, pH 10.5, 40°C, pH 10.5, with 3 equivalents of sodium dodecylsulfate, read-out: t1/2 at pH 10.5): 63 min
half-life (solution with 5 equivalents sodium dodecylsulfate, pH 10.5, 40°C, pH 10.5, with 5 equivalents of sodium dodecylsulfate, read-out: t1/2 at pH 10.5): 93 min
half-life (solution with 10 equivalents sodium dodecylsulfate, pH 10.5, 40°C, pH 10.5, with 10 equivalents of sodium dodecylsulfate, read-out: t1/2 at pH 10.5): 104 min
SMILES: CC(C)=CCC/C(C)=C/COC(=O)C[N+](C)(C)C.[Cl-] [BEG, geranyloxycarbonyl-N,N,N-trimethylmethanaminium chloride]

kobs at pH 8.5 (40°C, alone): >30 min^-1
k [5]: >100 000 mol^- ^1.l.min^-1
kobs at pH 8.5 [5]: >0.3 min^-1
k [6]: 20 333 mol^- ^1.l.min^-1
kobs at pH 8.5 [6]: 0.0643 min^-1
k [7]: 904 mol^- ^1.l.min^-1
kobs at pH 8.5 [7]: 0.00286 min^-1
k (40°C, pH 10.5, 1.25 10^-2 mol/l, alone): >100 000 mol^- ^1.l.min^-1
k (40°C, pH 10.5, 10^-3 mol/l, alone): >15000 mol^- ^1.l.min^-1
k (40°C, pH 10.5, alone): >100 000 mol^- ^1.l.min^-1
k obs (40°C, pH 10.5, high betaine ester concentration 1.25 10^-2 mol/l, alone): >30 min⁻¹
k obs (40°C, pH 10.5, lower concentration 10^-3 mol/l, alone): >5 min⁻¹
k (40°C, pH 10.5, with 1 equivalent sodium dodecylsulfate): 5.3 mol^- ^1.l.min^-1
k (40°C, pH 10.5, with 1 equivalent sodium hexadecylsulfonate): 1580 mol^- ^1.l.min^-1
k (40°C, pH 10.5, with 2 equivalents sodium stearate): 1265 mol^- ^1.l.min^-1
kobs at pH 8.5 (40°C, with 1 equivalent sodium dodecylsulfate): 0.0017 min^-1
kobs at pH 8.5 (40°C, with 1 equivalent sodium hexadecylsulfonate): 0.5 min^-1
kobs at pH 8.5 (40°C, with 2 equivalents sodium stearate): 0.4 min^-1
half-life at 0.0125 mol/l (buffer, pH 8.5, 40°C, pH 8.5, 1.25 10^-2 mol/l, alone, read-out: t1/2 pH 8.5): < 2 min
half-life at 0.0125 mol/l (buffer, pH 10.5, 40°C, pH 10.5, 1.25 10^-2 mol/l, alone, read-out: t1/2): < 0.0333 min
half-life (buffer, pH 10.5, 40°C, pH 10.5, 10^-3 mol/l, alone, read-out: t1/2): < 0.167 min
half-life (buffer, pH 10.5, 40°C, pH 10.5, alone, read-out: t1/2 pH 10.5): < 0.0333 min
rate of hydrolysis at pH neutral (∼7) (compared with a normal ester, C12 BEG 1.25 10^-2 mol/l): far faster than for a normal ester
profile of hydrolysis: very dependent on pH
half-life at 0.0125 mol/l (sodium stearate solution in distilled water (1 equivalent), pH 8.5, 40°C, pH 8.5, with 1 equivalent sodium stearate, read-out: t1/2 pH 8.5): 11 min
half-life at 0.0125 mol/l (sodium stearate solution in distilled water (2 equivalents), pH 8.5, 40°C, pH 8.5, with 2 equivalent sodium stearate, read-out: t1/2 pH 8.5): 243 min
half-life at 0.0125 mol/l (sodium stearate solution in distilled water (2 equivalents), pH 10.5, 40°C, pH 10.5, with 2 equivalents sodium stearate, read-out: t1/2 pH 10.5): 1.7 min
half-life (solution with 1 equivalent sodium dodecylsulfate, pH 10.5, 40°C, pH 10.5, with 1 equivalent sodium dodecylsulfate, read-out: t1/2 pH 10.5): 414 min
half-life (solution with 1 equivalent sodium hexadecylsulfonate, pH 10.5, 40°C, pH 10.5, with 1 equivalent sodium hexadecylsulfonate, read-out: t1/2 pH 10.5): 1.4 min
SMILES: CCCCCCCCCCCC[N+](C)(C)CC(=O)OC/C=C(\C)CCC=C(C)C.[Br-] [C12 BEG, Geranyloxycarbonyl-N,N-dimethyl-N-dodecylmethanaminium bromide]

k [8]: 10.6 mol^- ^1.l.min^-1
k obs [8]: 0.0034 min⁻¹
t1/2 (40°C, pH 10.5, 1.25 10^-2 mol/l, with 2 equivalents of sodium dodecylsulfate, 12500 µM): 206 min
k [9]: 26.1 mol^- ^1.l.min^-1
k obs [9]: 0.0083 min⁻¹
t1/2 (40°C, pH 10.5, 1.25 10^-2 mol/l, with 4 equivalents of sodium dodecylsulfate, 12500 µM): 84 min
k [10]: 32.8 mol^- ^1.l.min^-1
k obs [10]: 0.0104 min⁻¹
t1/2 (40°C, pH 10.5, 1.25 10^-2 mol/l, with 9 equivalents of sodium dodecylsulfate, 12500 µM): 67 min
k [11]: 37 mol^- ^1.l.min^-1
k obs [11]: 0.01169 min⁻¹
t1/2 (40°C, pH 10.5, 10^-3 mol/l, with mixture anionic/nonionic, 1000 µM): 59 min
k [12]: 28.6 mol^- ^1.l.min^-1
k obs [12]: 0.0095 min⁻¹
t1/2 (40°C, pH 10.5, 10^-3 mol/l, with sodium dodecylsulfate only, 1000 µM): 77 min
k [13]: 229 mol^- ^1.l.min^-1
k obs [13]: 0.0724 min⁻¹
t1/2 (40°C, pH 10.5, ion pair 1.25 10^-2 mol/l alone, 12500 µM): 9.6 min
k [14]: 423.7 mol^- ^1.l.min^-1
k obs [14]: 0.134 min⁻¹
t1/2 (40°C, pH 10.5, ion pair 10^-3 mol/l alone, 1000 µM): 5.2 min
SMILES: CCCCCCCCCCCCOS(=O)(=O)[O-].CCCCCCCCCCCC[N+](C)(C)CC(=O)OC/C=C(\C)CCC=C(C)C [C12 BEG/DS]
